Where a name gives a salt, the structure may show the parent alone.

In US10047073B2, “Histone deacetylase inhibitors and compositions and methods of use thereof” (CHDI Foundation, Inc., priority 2015, dated 2018) one finds IC50 data, which are given here for eleven molecules.

For experiment [1], the target named is human catalytic domain HDAC4 protein (Homo sapiens (Human), UniProt P56524). Description: Inhibition of HDAC4 catalytic domain, Boc-Lys(TFA)-AMC fluorogenic substrate. As to conditions: read-out: HDAC4 Biochemical IC50. From the text:
Example 13: Analysis of Inhibition of HDAC4 with Class IIa Histone Deacetylase (HDAC) Inhibitors
The potency of Class IIa Histone Deacetylase (HDAC) inhibitors was quantified by measuring the Histone Deacetylase 4 (HDAC4) catalytic domain enzymatic activity using the fluorogenic substrate, Boc-Lys(TFA)-AMC. The substrate was deacetylated to Boc-Lys-AMC by HDAC4. […] The fluorescence of the sample was directly related to the histone deacetylase activity in the sample.
Serial dilutions of the HDAC inhibitors and control reference compound (1-(5-(3-((4-(1,3,4-oxadiazol-2-yl)phenoxy)methyl)-1,2,4-oxadiazol-5-yl)thiophen-2-yl)-2,2,2-trifluoroethanone) were made by first resuspending the lyophilized compound to a final concentration of 10 mM in 100% dimethyl sulfoxide (DMSO). Stocks of 60 μL aliquots of the 10 mM compound in DMSO were prepared and stored at −20° C. From one stock aliquot of each tested compound and the reference compound, a 16-point serial dilution was prepared according to Table 1 using a 125 μL 16-channel Matrix multi-channel pipette (Matrix Technologies Ltd).
2 μL (200×) of each diluted solution and each control (full activity: 100% DMSO alone or full inhibition 1 mM) was stamped into V-bottomed polypropylene 384-well compound plates using either the Bravo (384-well head from Agilent) or 12.5 μL 16-channel Matrix multi-channel pipette (Matrix Technologies Ltd). Each well with the 200× compound solution was diluted 1:20 by the addition of 38 μL assay buffer+DMSO (10.5% DMSO, 45 mM Tris-HCl, 123 mM NaCl, 2.4 mM KCl, and 0.9 mM MgCl2 at pH 8.0 and equilibrated to r.t.).
The HDAC4 catalytic domain enzyme was human catalytic domain HDAC4 protein (amino acids 648-1032) with a C-terminal 6× histidine tag, produced by BioFocus. A working solution of enzyme was prepared from a 500 μg/mL stock aliquot of HDAC4 catalytic domain (thawed on ice) diluted to 0.2 μg/mL with assay buffer (50 mM Tris-HCl, 137 mM NaCl, 2.7 mM KCl, and 1 mM MgCl2 at pH 8 and equilibrated to r.t.) just prior to the addition of the enzyme to the assay.
5× (50 μM) substrate was prepared just prior to the addition to the assay. A 1 mM substrate stock was made by diluting a 100 mM Boc-Lys(TFA)-AMC in DMSO solution 1:100 by adding it drop-wise to assay buffer (equilibrated to r.t.) while vortexing at slow speed to prevent precipitation. The 5× substrate was prepared by diluting the 1 mM substrate solution 1:20 by adding it drop-wise to assay buffer (equilibrated to r.t.) while vortexing at slow speed to prevent precipitation.
3× (30 μM) Developer/Stop Solution was prepared just prior to addition to the plate by diluting a stock solution of 10 mM reference compound 1:333 in 25 mg/mL trypsin (PAA Laboratories Ltd.) equilibrated to r.t.
5 μL of each solution of 1:20 diluted compound from above was transferred to a clear bottomed, black, 384-well assay plate using the Bravo or the Janus (384-well MDT head from Perkin Elmer). Using a 16-channel Matrix multi-channel pipette, 35 μL of the working solution of HDAC4 catalytic domain enzyme (0.2 μg/mL in assay buffer) was transferred to the assay plate. The assay was then started by adding 10 μL of 5× (50 μM) substrate to the assay plates using either the Bravo, Janus or 16-channel Matrix multi-channel pipette. The assay plate was then shaken for two minutes on an orbital shaker at 900 rpm (rotations per minute). Next the plate was incubated for 15 minutes at 37° C. The reaction was stopped by adding 25 μL of 3× (30 μM) developer/stop solution to the assay plates using either the Bravo, Janus or a 16-channel Matrix multi-channel pipette. Assay plates were then shaken for 5 minutes on an orbital shaker at 1200 rpm. Next, the assay plates were incubated at 37° C. for 1 hour in a tissue culture incubator. Finally, the fluorescence was measured (Excitation: 355 nm, Emission: 460 nm) using PerkinElmer EnVision in top read mode.

Experiment [2] relates to cellular Class I HDAC activity in Jurkat E6-1 cells. Description: Inhibition of cellular Class I HDAC activity, Cell (Lys-Ac) substrate. Format: cell-based. As to conditions: Boc-Lys(Ac)-AMC. On the procedure:
Example 18: Analysis of Inhibition of Cellular Class I HDAC Activity with Class IIa Histone Deacetylase (HDAC) Inhibitors: Cell (Lys-Ac) Substrate
The Class I HDAC activity of Class IIa Histone Deacetylase (HDAC) inhibitors was quantified by measuring the cellular histone deacetylase enzymatic activity using the fluorogenic substrate, Boc-Lys(Ac)-AMC. This was performed according to the procedure in Example 17, using Boc-Lys(Ac)-AMC substrate in place of Boc-Lys(TFA)-AMC.

Experiment [3] concerns cellular Class IIa HDAC activity in Jurkat E6-1 cells. Description: Inhibition of cellular Class IIa HDAC activity, Cell (Lys-TFA) substrate. The class given is cell-based. As to conditions: Boc-Lys(TFA)-AMC. The source says: Example 17: Analysis of Inhibition of Cellular Class IIa HDAC Activity with Class IIa Histone Deacetylase (HDAC) Inhibitors: Cell (Lys-TFA) Substrate
The potency of Class IIa Histone Deacetylase (HDAC) inhibitors was quantified by measuring the cellular histone deacetylase enzymatic activity using the fluorogenic substrate, Boc-Lys(TFA)-AMC. After penetration in Jurkat E6-1 cells, the substrate was deacetylated to Boc-Lys-AMC. After cell lysis and cleavage by trypsin, the fluorophore AMC was released from the deacetylated substrate only. The fluorescence of the sample was directly related to the histone deacetylase activity in the sample.
Jurkat E6.1 cells were cultured according to standard cell culture protocols in Jurkat E6.1 Growth Media (RPMI without phenol red, 10% FBS, 10 mM HEPES, and 1 mM Sodium Pyruvate). Jurkat E6.1 cells were counted using a Coulter Counter and resuspended in Jurkat E6.1 growth media at a concentration of 75,000 cells/35 μL. 35 μL or 75,000 cells was seeded into Greiner microtitre assay plates. The plates were then incubated at 37° C. and 5% CO2 while other assay components were being prepared.
Serial dilutions of the HDAC inhibitors and control reference compound (1-(5-(3-((4-(1,3,4-oxadiazol-2-yl)phenoxy)methyl)-1,2,4-oxadiazol-5-yl)thiophen-2-yl)-2,2,2-trifluoroethanone) were made by first resuspending the lyophilized compound to a final concentration of 10 mM in 100% DMSO. Stocks of […] aliquots of the 10 mM compound in DMSO were prepared and stored at −20° C. From one stock aliquot of each tested compound and the reference compound, a 16-point serial dilution was prepared according to Table 1 using a 125 μL 16-channel Matrix multi-channel pipette.
2 μL (200×) of each diluted solution and each control (full activity: 100% DMSO alone or full inhibition 1 mM) was stamped into V-bottom polypropylene 384-well compound plates using either the Bravo, Janus, or 12.5 μL 16-channel Matrix multi-channel pipette. Each well with the 200× compound solution was diluted 1:20 by the addition of 38 μL Jurkat assay buffer+DMSO (9.5% DMSO, RPMI without phenol red, 0.09% FBS, 9 mM Hepes, and 0.9 mM Sodium Pyruvate equilibrated to r.t.)
5× (500 μM) substrate was prepared just prior to the addition to the assay. The 5× substrate was prepared by diluting a 100 mM Boc-Lys(TFA)-AMC in DMSO solution 1:200 by adding it drop-wise to Jurkat assay medium (RPMI without phenol red, 0.1% FBS, 10 mM Hepes, and 1 mM Sodium Pyruvate equilibrated to 37° C.) while vortexing at slow speed to prevent precipitation.
10 mL of 3× lysis buffer was prepared with 8.8 mL of 3× stock lysis buffer (50 mM Tris-HCl, pH 8.0, 137 mM NaCl, 2.7 mM KCl, 1 mM MgCl2, 1% Nonidet P40 Substitute equilibrated to r.t.) and 1.2 mL of 3 mg/mL Trypsin equilibrated to r.t.
5 μL of each solution of 1:20 diluted compound from above was transferred to the Greiner microtitre assay plates with 75,000 cells/well using the Bravo. Cells were then incubated for 2 hours at 37° C. and 5% CO2. The assay was then started by adding 10 μL of 5× (500 μM) substrate to the assay plate using either the Bravo or 16-channel Matrix multi-channel pipette. The cells were then incubated for 3 hours at 37° C. and 5% CO2. Next, 25 μL of 3× lysis buffer was added to each well using either the 125 μL 16 channel pipette or the Bravo. The assay plate was then incubated overnight (15-16 hours) at 37° C. and 5% CO2. The following day, the plates were shaken on an orbital shaker for 1 minute at 900 rpm. Finally the top read fluorescence (Excitation: 355 nm, Emission: 460 nm) was measured using PerkinElmer EnVision.

Setting [4] is: Homo sapiens, Jurkat E6.1, Jurkat E6.1 cells.

Sequence of human catalytic domain HDAC4 protein (P56524 648-1032): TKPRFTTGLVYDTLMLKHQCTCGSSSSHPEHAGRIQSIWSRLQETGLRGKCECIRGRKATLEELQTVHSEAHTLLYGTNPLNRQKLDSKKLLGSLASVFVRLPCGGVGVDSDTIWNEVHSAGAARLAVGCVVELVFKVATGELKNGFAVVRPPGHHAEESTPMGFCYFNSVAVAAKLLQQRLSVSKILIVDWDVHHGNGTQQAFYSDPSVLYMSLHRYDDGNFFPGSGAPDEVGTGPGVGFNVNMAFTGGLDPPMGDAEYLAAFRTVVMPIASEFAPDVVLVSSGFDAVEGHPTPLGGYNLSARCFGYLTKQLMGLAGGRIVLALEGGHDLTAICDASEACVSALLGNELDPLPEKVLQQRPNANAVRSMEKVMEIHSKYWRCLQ

What is called IC50 is the point on the concentration scale where inhibition reaches its midpoint. As to `O=C(NC1(CN2CCC3(CC2)COC3)CC1)c1ccc(-c2noc(C(F)(F)F)n2)cc1` [Example 2, N-(1-(2-Oxa-7-azaspiro[3.5]nonan-7-ylmethyl)cyclopropyl)-4-(5-(trifluoromethyl)-1,2,4-oxadiazol-3-yl)benzamide], the IC50 was 110 nM in experiment [1], 4900 nM in experiment [2] (setting [4]) and 240 nM in experiment [3] (setting [4]).

As to `O=C(NC1(CN2CCCC3(CC3)C2)CC1)c1ccc(-c2noc(C(F)(F)F)n2)cc1` [Example 1, N-(1-(5-Azaspiro[2.5]octan-5-ylmethyl)cyclopropyl)-4-(5-(trifluoromethyl)-1,2,4-oxadiazol-3-yl)benzamide], the IC50 worked out at 50 nM in experiment [1], 2600 nM in experiment [2] (setting [4]) and 140 nM in experiment [3] (setting [4]).

With `O=C(NC1(CN2CCCC23COC3)CC1)c1ccc(-c2noc(C(F)(F)F)n2)cc1` [Example 3, N-(1-(2-Oxa-5-azaspiro[3.4]octan-5-ylmethyl)cyclopropyl)-4-(5-(trifluoromethyl)-1,2,4-oxadiazol-3-yl)benzamide], the IC50 in experiment [1] is 750 nM; in experiment [2] (setting [4]), 8600 nM; in experiment [3] (setting [4]), 390 nM.

As to `O=C(NC1(CN2CCC3(CC2)CC3)CC1)c1ccc(-c2noc(C(F)(F)F)n2)cc1` [Example 5, N-(1-(6-Azaspiro[2.5]octan-6-ylmethyl)cyclopropyl)-4-(5-(trifluoromethyl)-1,2,4-oxadiazol-3-yl)benzamide], the IC50 in experiment [1] is 89 nM; in experiment [2] (setting [4]), 2000 nM; in experiment [3] (setting [4]), 370 nM.

In the case of `C[C@H]1CCCN1CC1CC1NC(=O)c1ccc(-c2noc(C(F)(F)F)n2)cc1` (single isomer, unassigned) [Example 11], the half-maximal inhibitory concentration (IC50) in experiment [1] was 230 nM; in experiment [2] (setting [4]), 36600 nM; in experiment [3] (setting [4]) it was 1000 nM.

As to `O=C(NC1(CN2CCCC2C2CC2)CC1)c1ccc(-c2noc(C(F)(F)F)n2)cc1` (single isomer, unassigned) [Example 6, E1-(abs)-N-(1-((2-Cyclopropylpyrrolidin-1-yl)methyl)cyclopropyl)-4-(5-(trifluoromethyl)-1,2,4-oxadiazol-3-yl)benzamide], the results for the IC50 in experiment [1], in experiment [2] (Jurkat E6.1 cells) and in experiment [3] (setting [4]) were 8 nM, 1500 nM and 28 nM, respectively.

For the molecule `CC1(C)CCCN(CC2(NC(=O)c3ccc(-c4noc(C(F)(F)F)n4)cc3)CC2)C1` [Example 8, N-(1-((3,3-Dimethylpiperidin-1-yl)methyl)cyclopropyl)-4-(5-(trifluoromethyl)-1,2,4-oxadiazol-3-yl)benzamide formate], the IC50 stood at 30 nM in experiment [1], 2500 nM in experiment [2] (setting [4]) and 45 nM in experiment [3] (setting [4]).

Regarding `O=C(NC1(CN2CC3CCC(C3)C2)CC1)c1ccc(-c2noc(C(F)(F)F)n2)cc1` [Example 4, N-(1-(-3-Azabicyclo[3.2.1]octan-3-ylmethyl)cyclopropyl)-4-(5-(trifluoromethyl)-1,2,4-oxadiazol-3-yl)benzamide], the IC50 in experiment [2] (setting [4]) is 7800 nM; in experiment [3] (setting [4]) it was 690 nM.

On to `O=C(NC1(CN2CCCC23COC3)CCC1)c1ccc(-c2noc(C(F)(F)F)n2)cc1` [Example 10, N-(1-(2-Oxa-5-azaspiro[3.4]octan-5-ylmethyl)cyclobutyl)-4-(5-(trifluoromethyl)-1,2,4-oxadiazol-3-yl)benzamide], for which the IC50 was determined as 750 nM in experiment [1], 8600 nM in experiment [2] (setting [4]) and 390 nM in experiment [3] (setting [4]).

Turning to `O=C(NC1(CN2CCC3(CC3)C2)CCC1)c1ccc(-c2noc(C(F)(F)F)n2)cc1` [Example 9, N-(1-(5-Azaspiro[2.4]heptan-5-ylmethyl)cyclobutyl)-4-(5-(trifluoromethyl)-1,2,4-oxadiazol-3-yl)benzamide], the IC50 in experiment [1] stood at 58 nM; in experiment [2] (setting [4]) it was 700 nM; in experiment [3] (setting [4]) it was 100 nM.

Take `O=C(NC1(CN2CCCC2C2CC2)CC1)c1ccc(-c2noc(C(F)(F)F)n2)cc1` (single isomer, unassigned) [Example 7, E2-(abs)-N-(1-((2-Cyclopropylpyrrolidin-1-yl)methyl)cyclopropyl)-4-(5-(trifluoromethyl)-1,2,4-oxadiazol-3-yl)benzamide]: the IC50 in experiment [1] came to 3 nM; in experiment [2] (Jurkat E6.1 cells) it was 540 nM; in experiment [3] (Jurkat E6.1 cells) it was 14 nM.
